Where “and” joins values, the source holds several entries; their conditions need not be identical. Equal entries are not always repeated. Where two headings read alike, the source gives them in different places.
Columns and labels:
[1] = test system: isolated mouse pancreatic islets; experiment: Insulin secretion in isolated mouse islets (RIA); format: cell-based
Description: (§1) Mouse islets were used acutely, except for studies with PTX, wherein islets were treated overnight with the toxin. Human islets were maintained in culture for up to 48 h in RPMI medium containing 10% (vol./vol.) FCS, 1% (vol./vol.) penicillin/streptomycin and 5 mmol/l glucose. Experiments were conducted as previously described. Islets were incubated in 0.3 ml EC1 or EC2 media (ESM Table 2) supplemented with glucose and other reagents as indicated.
(§2) Insulin and somatostatin were determined by RIA (Millipore and Diasource ImmunoAssays, respectively) as described previously. In these experiments, rates of release are expressed as % of contents unless otherwise indicated.

mouse alpha cells = experiment: TIRF imaging of docked secretory granules in mouse alpha cells; format: cell-based
Description: (§3) Cells were imaged using total internal reflection fluorescence (TIRF) microscopy (AxioObserver Z1 with a ×100/1.45 objective [Carl Zeiss] and a diode-pumped solid state laser at 491 nm). For these measurements, EC1 was used (ESM Table 2). Images from cells infected with preproglucagon promoter (PPPG)-neuropeptide Y (NPY)-enhanced green fluorescent protein (EGFP) virus were recorded using an electron-multiplying charge-coupled device camera (Photometrics Evolve) using ZEN blue. Single images of cells were acquired to measure the number of docked granules. Incoming and outgoing granules during visiting, docking and undocking were determined from multiple frame movies as described previously. Candidate docking or undocking events were found manually as granules that approached the TIRF field with an axial component and became laterally confined for at least two frames. We defined docking as granules that remained confined for at least 1 min. Visitors were those granules that remained for <1 min after appearing at the plasma membrane. Undocking was defined as slow movement of a previously docked granule away from its docking site. Granule density was calculated using a script that used the built-in ‘find maxima’ function in ImageJ (version 1.53c; http://rsbweb.nih.gov/ij) for spot detection.

C57Bl6N mice = experiment: Plasma glucose and glucagon during insulin-induced hypoglycaemia; format: in vivo, mouse
Description: In the experiments involving the use of REMD2.59, mice were injected intraperitoneally with the antagonist (5 mg/kg body weight in PBS) or vehicle 24 h prior to insulin-induced hypoglycaemia. Following the completion of the experiment, the mice were euthanised and the pancreases were resected and weighed.

[2] = biological target: T1, human GCGR expressed in HEK293T cells (Homo sapiens, UniProt P47871); experiment: G protein dissociation (TRUPATH BRET2 biosensor); format: cell-based
T1 construct: expressed in transfected cells; host or cells: HEK293T (ATCC CRL-3216)
Description: G protein dissociation was measured using the TRUPATH biosensor platform. TRUPATH constructs were obtained from Addgene (kit no. 1000000163 [21]). […] Cells were transfected with equal amounts of GCGR, GαsS-, Gαi1-, Gαi2-, Gαi3-, GαoA-, GαoB- or Gαz-Rluc8, Gβ3, and Gγ1-, Gγ8- or Gγ9-GFP2 (as described in [21]), and pcDNA3.1(‑) using polyethyleneimine (ESM Table 3). After 24 h, cells were seeded at 50,000 cells/well of a 0.01% poly-L-lysine-coated white 96-well plate (Greiner) and grown overnight. Cells were washed with Hanks’ Balanced Salt Solution (Lonza) buffered with 20 mmol/l HEPES (Sigma) and supplemented with 0.1% BSA (Sigma) (wt/vol.). Cells were incubated in 5 μmol/l coelenterazine 400a (Nanolight Technologies) for 5 min. […] The bioluminescence resonance energy transfer 2 (BRET2) ratio was calculated (λ515/λ400) and the time point corresponding to maximal dissociation was used to generate dose–response curves. pEC50 values were calculated using the ‘three parameter log(agonist) vs response’ model in GraphPad Prism9 (version 9.1.0; graphpad.com).

human alpha cells = experiment: TIRF imaging of docked secretory granules in human alpha cells; format: cell-based; conditions: 10 pmol/l
Description: as §3

[3] = test system: isolated mouse pancreatic islets; format: cell-based; conditions: for glucagon secretion, % of that at 1 mmol/l glucose: mean ± SEM
Description: Experiments were conducted as previously described. Islets were incubated in 0.3 ml EC1 or EC2 media (ESM Table 2) supplemented with glucose and other reagents as indicated.
All data are reported, unless otherwise stated, as mean values ± SEM for the indicated number of experiments using islets from multiple mice. For hormone release studies, islets were isolated and pooled from 4–16 mice. These islets were then subdivided into groups of 12–20 size-matched islets. Each unique set of islets counted as an experiment with the experiments repeated on 2–4 days. Similarly, each unique group of human islets was treated as an experiment. […] In the Ca^2+ imaging and granule docking experiment, each cell represents an experiment making sure that cells from multiple donors/animals were used. For the in vivo experiments and the perfused pancreas, each mouse count represents an experiment. For two groupings, a t test was conducted. For multiple comparisons, one-way ANOVA was conducted. All statistical tests were performed using Graphpad Prism (version 9.1.0; graphpad.com).

[4] = test system: PKA activity in alpha cells; experiment: PKA activity measurements (AKAR3) in alpha cells in intact islets; format: cell-based, mouse
Description: PKA activity was measured using AKAR3 as previously described. The cells were continuously superfused at a rate of 60 μl/min with EC4 (ESM Table 2).

[5] = test system: isolated mouse pancreatic islets; experiment: Somatostatin secretion in isolated mouse islets (RIA); format: cell-based; conditions: 10–10,000 pmol/l, 1 mmol/l glucose
Description: as §1, with “indicated. Glucagon was determined by ELISA (Mercodia).” for “indicated.”
as §2

T1 sequence (P47871 26-477): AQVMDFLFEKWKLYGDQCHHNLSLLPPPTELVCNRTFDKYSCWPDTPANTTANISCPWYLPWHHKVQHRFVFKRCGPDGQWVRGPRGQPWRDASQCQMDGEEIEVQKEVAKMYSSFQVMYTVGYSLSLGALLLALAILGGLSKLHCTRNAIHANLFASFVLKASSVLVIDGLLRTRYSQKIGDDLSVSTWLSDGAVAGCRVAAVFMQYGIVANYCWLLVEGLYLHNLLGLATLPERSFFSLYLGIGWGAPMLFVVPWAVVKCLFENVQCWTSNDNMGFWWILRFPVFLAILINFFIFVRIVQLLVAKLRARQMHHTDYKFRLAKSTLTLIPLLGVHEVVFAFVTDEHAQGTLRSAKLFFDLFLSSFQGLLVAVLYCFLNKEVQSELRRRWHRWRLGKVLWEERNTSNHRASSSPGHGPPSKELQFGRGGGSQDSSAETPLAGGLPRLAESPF

SMILES: CC[C@H](C)[C@H](NC(=O)[C@H](Cc1ccccc1)NC(=O)[C@H](CCC(=O)O)NC(=O)[C@H](CCCCN)NC(=O)[C@H](C)NC(=O)[C@H](C)NC(=O)[C@H](CCC(N)=O)NC(=O)CNC(=O)[C@H](CCC(=O)O)NC(=O)[C@H](CC(C)C)NC(=O)[C@H](Cc1ccc(O)cc1)NC(=O)[C@H](CO)NC(=O)[C@H](CO)NC(=O)[C@@H](NC(=O)[C@H](CC(=O)O)NC(=O)[C@H](CO)NC(=O)[C@@H](NC(=O)[C@H](Cc1ccccc1)NC(=O)[C@@H](NC(=O)CNC(=O)[C@@H](N)CCC(=O)O)[C@@H](C)O)[C@@H](C)O)C(C)C)C(=O)N[C@@H](C)C(=O)N[C@@H](Cc1c[nH]c2ccccc12)C(=O)N[C@@H](CC(C)C)C(=O)N[C@H](C(=O)N[C@@H](CCCCN)C(=O)NCC(=O)N[C@@H](CCCNC(=N)N)C(N)=O)C(C)C [GLP-1(9–36)]
- effect on insulin secretion ([1]; 30 pmol/l alone, at 1 or 10 mmol/l glucose): did not increase insulin secretion
- effect on insulin secretion ([1]; 10–10,000 pmol/l, mouse islets, 1 mmol/l glucose): No stimulatory effects
- time at which reduction of docked granules was maximal (mouse alpha cells; 10 pmol/l): 10 min
- reduction of the number of docked granules (mouse alpha cells; 10 pmol/l, 1 mmol/l glucose, mouse alpha cells): 40%
- how granule density was reduced (docking, undocking, arrival) (mouse alpha cells; 10 pmol/l, during 15 min): inhibiting granule docking and stimulating granule undocking, while not affecting the rate of arrival
- capacity to reduce docked granules in the presence of L-168049 (mouse alpha cells; L-168049 100 nmol/l): prevented
- capacity to reduce docked granules after PTX pretreatment (mouse alpha cells; PTX 100 ng/ml for 16 h): prevented
- capacity to reduce docked granules in the presence of exendin(9–39) (mouse alpha cells; exendin(9–39) 100 nmol/l, 15 min after addition): resistant
- effect on granule docking in the presence of ω-agatoxin (mouse alpha cells; ω-agatoxin 200 nmol/l): no additive effect
- decrease of plasma glucagon AUC during hypoglycaemia (C57Bl6N mice; 100 µg/kg i.p. at t=−15 min, AUC over 45 min after insulin, 13 or 14 mice): 30% and ~ 30%
- effect on hypoglycaemia-triggered increase in plasma glucagon (C57Bl6N mice; 100 µg/kg i.p. at t=−15 min, insulin 0.75 U/kg): slightly reduced
- glucagonostatic effect when administered simultaneously with insulin (C57Bl6N mice; co-injected with insulin 0.75 U/kg, p=0.53): No glucagonostatic effect
- glucagonostatic effect in the presence of REMD2.59 (C57Bl6N mice; mice pretreated with REMD2.59, GLP-1(9–36) 100 µg/kg): no glucagonostatic effect
- effect on basal plasma glucagon (C57Bl6N mice; normoglycaemic conditions, prior to insulin injection, 100 µg/kg i.p.): not affected
- efficacy of GoA dissociation relative to glucagon ([2]; GCGR, GoA, HEK293T): ~ 10%
- EC50 ([2]; Gα i2, mean ± S.E.M.): 501 nM
- pEC50 ([2]; Gα oA, mean ± S.E.M.): 7.55±-0.52
- increase of docking (human alpha cells; alpha cells from donors with type 2 diabetes): 40%
- reduction of the number of docked granules (human alpha cells; alpha cells from healthy donors, after 15 min): 52%
- glucagon secretion, % of that at 1 mmol/l glucose ([3]; 10 pmol/l GLP-1(9–36) in the presence of REMD2.59 100 nmol/l): 110±4%
- inhibitory effect on glucagon secretion in Glp1r−/− mouse islets ([3]; 10 pmol/l, Glp1r−/− islets, 1 mmol/l glucose): persisted
- glucagonostatic effect in the presence of exendin(9–39) ([3]; 10 pmol/l, exendin(9–39) 1 μmol/l, 1 mmol/l glucose): retained their glucagonostatic effect
- inhibition of glucagon secretion ([3]; 30 pmol/l, 1 mmol/l glucose): 55%
- change of glucagon secretion compared with 10 mmol/l glucose alone ([3]; 30 pmol/l, 10 mmol/l glucose): −50%
- glucagon secretion, % of that at 1 mmol/l glucose ([3]; 1000 pmol/l GLP-1(9–36) in the presence of REMD2.59 100 nmol/l): 76±5%
- glucagonostatic effect in the presence of the PKA inhibitor 8-Br-Rp-cAMPS ([3]; 8-Br-Rp-cAMPS 10 μmol/l, 1 mmol/l glucose): retains its glucagonostatic capacity
- IC50 ([3]; 48 h): 4 pM
- inhibition of amino acid-induced glucagon secretion ([3]; AA 6 mmol/l (2 mmol/l each glutamine, alanine, arginine), 1 mmol/l glucose): −66%
- reduction of isoprenaline-stimulated glucagon secretion ([3]; in the presence of isoprenaline): 75%
- inhibition of glucagon secretion ([3]; islets cultured overnight without PTX, 1 mmol/l glucose): ~ 50%
- reduction of glucagon secretion evoked by 70 mmol/l [K+]o ([3]; membrane depolarisation, 70 mmol/l extracellular K+): 60%
- inhibitory effect on glucagon secretion after PTX pretreatment ([3]; overnight PTX 100 ng/ml, 1 mmol/l glucose): almost abolished
- expected inhibition of glucagon secretion by circulating levels ([3]; ~30 pmol/l, from the dose–inhibition curves established in vitro): up to 80%
- effect on PKA activity in the presence of L-168049 ([4]; 10 and 100 pmol/l, L-168049 100 nmol/l): without effect
- inhibitory effect on PKA activity after PTX pretreatment ([4]; PTX pretreatment): abolished
- concentrations at which the decrease in cAMP/PKA activity was maximal ([4]; alpha cells in intact mouse islets): > 10 pmol/L
- effect on somatostatin secretion [5]: No stimulatory effects

Reference: PMC10844371 (Diabetologia, 2023)
